Where a name gives a salt, the structure may show the parent alone.
molecular target: T1, human TLR3 (hTLR3) (Homo sapiens, UniProt O15455); experiment: Antagonist screen, hTLR3-NFκB-293 cells, NF-κB-luciferase reporter, with EC50 of poly(I:C); format: cell-based; details: compound at 0.5, 5, 50 μg/ml; EC50 concentration of poly(I:C); 16 h; NF-κB-luciferase
T1 construct: expressed in transfected cells
T1 sequence (O15455 24-904): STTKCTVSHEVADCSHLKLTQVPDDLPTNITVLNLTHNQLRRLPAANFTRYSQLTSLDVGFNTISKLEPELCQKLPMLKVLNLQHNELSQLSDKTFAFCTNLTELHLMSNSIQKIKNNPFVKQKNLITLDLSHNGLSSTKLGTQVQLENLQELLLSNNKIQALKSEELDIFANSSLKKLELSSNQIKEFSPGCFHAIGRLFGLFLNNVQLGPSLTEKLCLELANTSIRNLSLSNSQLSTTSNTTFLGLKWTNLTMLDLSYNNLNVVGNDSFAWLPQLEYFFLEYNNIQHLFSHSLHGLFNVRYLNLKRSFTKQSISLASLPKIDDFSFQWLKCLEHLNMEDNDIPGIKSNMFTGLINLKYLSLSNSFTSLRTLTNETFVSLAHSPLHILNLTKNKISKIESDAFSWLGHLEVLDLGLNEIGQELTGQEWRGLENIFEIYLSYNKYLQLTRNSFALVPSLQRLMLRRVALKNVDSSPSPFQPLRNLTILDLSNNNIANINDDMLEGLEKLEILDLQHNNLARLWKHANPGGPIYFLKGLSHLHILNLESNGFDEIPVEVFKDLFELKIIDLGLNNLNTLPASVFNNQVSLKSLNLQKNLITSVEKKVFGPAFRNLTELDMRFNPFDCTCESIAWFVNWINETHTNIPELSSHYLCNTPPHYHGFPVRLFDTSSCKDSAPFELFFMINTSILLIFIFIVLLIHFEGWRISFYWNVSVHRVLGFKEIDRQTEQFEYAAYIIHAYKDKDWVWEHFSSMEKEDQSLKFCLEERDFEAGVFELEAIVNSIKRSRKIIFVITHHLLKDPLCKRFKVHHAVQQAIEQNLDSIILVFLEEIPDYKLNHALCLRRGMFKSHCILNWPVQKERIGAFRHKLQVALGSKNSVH
Summary of the method: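 Scores reflect clear reduction of NF-κB-luciferase signal versus baseline fold induction from EC50 poly(I:C) alone. Compounds tested in duplicate at three final concentrations (0.5, 5, 50 μg/ml) with ligand for 16 h stimulation of hTLR3-NFκB-293 cells plated overnight at 1.5×10^4 per well.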

| SMILES | hTLR3 (inhibitory effect, antagonist score) |
| --- | --- |
| CN1CCc2cccc3c2[C@H]1Cc1ccc(O)c(O)c1-3.Cl [compound 101, Apomorphinehydrochloride (R, —)] | — (compounds for which there was no clear down regulation even at 50 μg/ml) |
| CC(C)(C)c1ccc(C(O)CCCN2CCC(C(O)(c3ccccc3)c3ccccc3)CC2)cc1 (stereo not shown) [compound 138, Terfenadine] | 11 (compounds for which there was clear down regulation only at 50 μg/ml) |
| CN(C)C(=O)C(CCN1CCC(O)(c2ccc(Cl)cc2)CC1)(c1ccccc1)c1ccccc1 [compound 144, Loperamidehydrochloride] | 11 (compounds for which there was clear down regulation only at 50 μg/ml) |
| COc1cc2c(cc1O)C[C@H]1c3c(cc(O)c(OC)c3-2)CCN1C [compound 600, Boldine] | — (compounds for which there was no clear down regulation even at 50 μg/ml) |
| CN1CCc2cc3c(c4c2C1Cc1ccccc1-4)OCO3.Cl (stereo not shown) [compound 669, Remerine hydrochloride] | — (compounds for which there was no clear down regulation even at 50 μg/ml) |
| COc1cc2nc(N3CCN(C(=O)C4CCCO4)CC3)nc(N)c2cc1OC.Cl (stereo not shown) [compound 751, Terazosin hydrochloride] | — (compounds for which there was no clear down regulation even at 50 μg/ml) |
| COc1cc2nc(N3CCN(C(=O)C4COc5ccccc5O4)CC3)nc(N)c2cc1OC.CS(=O)(=O)O (stereo not shown) [compound 858, Doxazosin mesylate] | — (compounds for which there was no clear down regulation even at 50 μg/ml) |
| CCN(CC)CCCC(C)Nc1nc(/C=C/c2ccc(Cl)cc2)nc2cc3ccccc3cc12 (stereo not shown) [compound 2000] | 12 (compounds for which there was clear down regulation at 5 μg/ml and 50 μg/ml) |
| CCN(CC)CCCNc1nc(-c2ccccc2)nc2ccccc12 [compound 2001] | 11 (compounds for which there was clear down regulation only at 50 μg/ml) |

same assay, conditions: hTLR3-NFκB-293 cells, with EC50 of poly(I:C); compound at 0.5, 5 and 50 μg/ml

| SMILES | hTLR3 (inhibitory effect) |
| --- | --- |
| COc1cc2cc3c4cc(OC)c(OC)cc4cc[n+]3c(C)c2cc1OC [compound 431, Coralyne chloridehydrate] | — (compounds for which there was no clear down regulation even at 50 μg/ml) |
| COc1ccc(Cc2nccc3cc(OC)c(OC)cc23)cc1OC.Cl [compound 583, Papaverinehydrochloride] | — (compounds for which there was no clear down regulation even at 50 μg/ml) |
| COc1ccc2cc3[n+](cc2c1OC)CCc1cc2c(cc1-3)OCO2.[Cl-] [compound 586, Berberine chloride] | 11 (compounds for which there was clear down regulation only at 50 μg/ml) |
| CC[N+](C)(CC)CCC[n+]1c(-c2ccccc2)c2cc(N)ccc2c2ccc(N)cc21.[I-].[I-] [compound 792, Propidium iodide] | 12 (compounds for which there was clear down regulation at 5 μg/ml and 50 μg/ml) |
| CN(C)CCN(Cc1ccc(Cl)cc1)c1ccccn1.Cl [compound 807, Chloro-pyraminehydrochloride] | — (compounds for which there was no clear down regulation even at 50 μg/ml) |
| CCOc1ccc(Cc2nccc3cc(OCC)c(OCC)cc23)cc1OCC.Cl [compound 830, Ethaverinehydrochloride] | — (compounds for which there was no clear down regulation even at 50 μg/ml) |
| O=c1c2c(nc(NCCO)n1-c1ccccc1)-c1ccccc1CC21CCCC1 [compound 891] | 11 (compounds for which there was clear down regulation only at 50 μg/ml) |
| O=c1c2c(nc(NCCO)n1Cc1ccccc1)-c1ccccc1CC21CCCC1 [compound 926] | 12 (compounds for which there was clear down regulation at 5 μg/ml and 50 μg/ml) |
| CN1CCc2c1nc1ccccc1c2N [compound 990, 1-Methyl-2,3-dihydro-1H-pyrrolo[2,3-b]quinolin-4-ylamine] | — (compounds for which there was no clear down regulation even at 50 μg/ml) |
| CN1CCc2c1nc1ccccc1c2NC(=O)CN1CCCCCC1 [compound 1003] | 11 (compounds for which there was clear down regulation only at 50 μg/ml) |
| Cc1ccc2nc3c(c(N)c2c1)CCN3C [compound 1091, 1,6-Dimethyl-2,3-dihydro-1H-pyrrolo[2,3-b]quinolin-4-ylamine] | 11 (compounds for which there was clear down regulation only at 50 μg/ml) |
| Cc1ccc(-n2c(NCCO)nc3c(c2=O)C2(CCCCC2)Cc2ccccc2-3)cc1 [compound 1137] | 13 (compounds for which there was clear down regulation at 0.5 μg/ml, 5 μg/ml, and 50 μg/ml) |
| CN1CCc2c1nc1ccc(Br)cc1c2N [compound 1142, 6-Bromo-1-methyl-2,3-dihydro-1H-pyrrolo[2,3-b]quinolin-4-ylamine] | 11 (compounds for which there was clear down regulation only at 50 μg/ml) |
| O=C1c2ccc(S(=O)(=O)c3ccc4c(c3)C(=O)N(c3ccccn3)C4=O)cc2C(=O)N1c1ccccn1 [compound 1163] | 11 (compounds for which there was clear down regulation only at 50 μg/ml) |
| CN1CCCCc2c1nc1ccccc1c2N [compound 1185, 1-Methyl-2,3,4,5-tetrahydro-1H-azepino[2,3-b]quinolin-6-ylamine] | — (compounds for which there was no clear down regulation even at 50 μg/ml) |
| CN1CCc2c1nc1ccccc1c2NC(=O)CN1CCN(c2ccccc2)CC1 [compound 1212] | — (compounds for which there was no clear down regulation even at 50 μg/ml) |
| Cn1c(NN)nc2c(c1=O)C1(CCCC1)Cc1ccccc1-2 [compound 1213] | — (compounds for which there was no clear down regulation even at 50 μg/ml) |
| Nc1c2c(nc3ccccc13)N(Cc1ccccc1)CC2 [compound 1217, 1-Benzyl-2,3-dihydro-1H-pyrrolo[2,3-b]quinolin-4-ylamine] | 12 (compounds for which there was clear down regulation at 5 μg/ml and 50 μg/ml) |
| CCCCCCN(CCCCCC)CC(=O)Nc1c2c(nc3ccccc13)N(C)CC2 [compound 1224] | 12 (compounds for which there was clear down regulation at 5 μg/ml and 50 μg/ml) |
| O=C(CN1CCCC1)Nc1c2c(nc3ccccc13)N(c1ccccc1)CC2 [compound 1244] | 11 (compounds for which there was clear down regulation only at 50 μg/ml) |
| NNc1nc2c(c(=O)n1C1CCCC1)C1(CCCC1)Cc1ccccc1-2 [compound 1248] | — (compounds for which there was no clear down regulation even at 50 μg/ml) |
| NNc1nc2c(c(=O)n1-c1ccccc1)C1(CCCC1)Cc1ccccc1-2 [compound 1320] | — (compounds for which there was no clear down regulation even at 50 μg/ml) |
| O=c1[nH]c(NCCO)nc2c1C1(CCCC1)Cc1ccccc1-2 [compound 1322] | 11 (compounds for which there was clear down regulation only at 50 μg/ml) |
| CCCCCCCCCCCC(=O)Nc1c2c(nc3ccccc13)N(C)CC2 [compound 1334] | — (compounds for which there was no clear down regulation even at 50 μg/ml) |
| O=C1c2ccc(Oc3ccc(S(=O)(=O)c4ccc(Oc5ccc6c(c5)C(=O)N(c5ccccn5)C6=O)cc4)cc3)cc2C(=O)N1c1ccccn1 [compound 1367] | 12 (compounds for which there was clear down regulation at 5 μg/ml and 50 μg/ml) |

Source: patent US7410975B2, “Small molecule toll-like receptor (TLR) antagonists” (Coley Pharmaceutical Group, Inc., priority 2003, dated 2008)
